The values that follow come from patent US20070031398A1, “One of several enzyme-containing compounds, dietetic food products and drugs produced from and the use therefor for medical purpose” (MUCOS PHARMA GmbH & Co., priority 2003, published 2007).

The test system of this assay is prostate carcinomas. The assay is described as follows: concomitant therapy during treatment of carcinomas. Format: in vivo. Conditions: prophylactic and therapeutic effects. The source says: This applies both to the period before, during and at defined intervals after the tumor-destructive therapy, e.g. an operation, chemotherapy and/or radiotherapy. The reduced intake of micronutrients (e.g. vitamins, trace elements) which is caused by nausea, reduced food intake, vomiting, diarrhea and sweating is compensated. This improves the patient's tolerance of the treatment, increases the response to the therapy and improves the patient's quality of life. […] Overall, the efficacy of the tumor-destructive therapy is improved.

Turning to `CC(C)=CCC/C(C)=C/C=C/C(C)=C/C=C/C(C)=C/C=C/C=C(C)/C=C/C=C(C)/C=C/C=C(\C)CCC=C(C)C` [lycopene], the “incidence and aggressiveness of prostate carcinomas” value is “reduction in the incidence and aggressiveness”.
